Experimental data from patent US7714014B2, “Targeting GLI proteins in human cancer by small molecules” (The Regents of the University of California, priority 2005, dated 2010).

How the values were obtained:
[1] = tested on: NSCLC cells A549, H358, and H322; assay: Time course of cell survival (flow cytometry); assay type: cell-based, human
Protocol: The time course of cell survival in NSCLC cells A549, H358, and H322 after administration of small molecule compound FN1-8 was analyzed. A549 cells were incubated with 10 μM and 20 μM FN1-8, and H358 and H322 cells were incubated with 15 μM and 30 μM FN1-8, respectively. Then flow cytometry was used to examine the percentage of living and dead cells at different time points. […] In H358 cells, the cell killing effect of FN1-8 is already apparent by 1 day, and in H322 cells by 2 days. (data not shown).

[2] = tested on: H358 (NSCLC); assay: Apoptosis analysis (Annexin V FITC, flow cytometry); assay type: cell-based, human; conditions: 3 days
Protocol: Apoptosis was analyzed by using an Annexin V FITC Apoptosis Detection Kit (Biosource, Camarillo, Calif.), according to the manufacturer's protocol. After treatment with different small molecule compounds at various concentrations for about 3 days, cells were harvested by trypsinization, stained and immediately analyzed by flow cytometry (FACScan; Decton Dickinson, Franklin Lake, N.J.). Early apoptotic cells with exposed phosphatidylserine but intact cell membranes will bind to Annexin V-FITC, but not propidium iodide (PI). Cells in necrotic or late apoptotic stages will be labeled with both Annexin V-FITC and PI. “% apoptotic cells” or “% apoptosis” refers to the combined early and late apoptotic cells.
Dose titration experiments of small molecule compound FN1-8 was performed using the NSCLC cell lines A549, H358, and H322. A 549, H358, and H322 cells were plated in 6-well plates and incubated with DM SO (control) or 7.5 μM, 10 μM, 15 μM, 20 μM, and 30 μM of FN1-8, respectively, for 3 days. A dramatic and dose-dependent cell killing in these cell lines was observed when FN1-8 was added at 15 μM or more. FN1-8 induced cell killing in A549 and […] at slightly lower concentrations than in H322 cells (data not shown). After 3 days, approximately 28% of the A549 cells and 58% of H358 underwent apoptosis when incubated with 20 μM FN1-8 (Table 3).

In the case of `O=C(NCCc1ccc(O)cc1)C1C(c2ccccc2)=NN(c2ccccc2)C1c1ccccc1` (centres unmarked) [FN1-8, N-(2-(4-Hydroxyphenyl)ethyl)-1,3,5-triphenyl-4,5-dihydro-pyrazole-4-carboxyamide], the “time after which dose-dependent cell killing effect is shown” value ([1]; A549, 10 μM and 20 μM) is reported as 3 days, the “time by which cell killing effect is apparent” value ([1]; H322, 15 μM and 30 μM) is reported as at most 2 days and the “time by which cell killing effect is apparent” value ([1]; H358, 15 μM and 30 μM) is reported as at most 1 days. The “% of apoptotic cells” value ([2]; H358, 10 μM) was 15.2% and the “% of apoptotic cells” value ([2]; H358, 20 μM) was 58.1%.
